Source: US10526311B2 (ASTEX THERAPEUTICS LIMITED, priority 2015, dated 2020)
Read-outs that look alike come from different tables or passages of the source.

Tests used:
[1] = system: SJSA-1 (MDM2 amplified, p53 wild-type osteosarcoma); test: Protocol A: SJSA-1 growth inhibition (SRB)
Experimental: Protocol A: SJSA-1 and SN40R2 Assays
(§1) Following incubation with the SRB dye at room temperature for 30 min, the plates were washed with 1% acetic acid and left to dry. […] The GI50 was calculated by non-linear regression analysis of the data using Prism v4.0 statistical software.

SJSA-1 = test: Protocol B: SJSA-1 CellTiter-Glo cell viability; conditions: for SJSA1 (Protocol B) % at concentration: SJSA-1, Protocol B, at 10 μM
Experimental: Protocol B: SJSA-1 and SN40R2 Assays
The CellTiter-Glo® Luminescent Cell Viability Assay is a homogeneous method to determine the number of viable cells in culture based on quantitation of the ATP present, which signals the presence of metabolically active cells. […] 100 μl of CTG reagent (Promega #G7573) was added to all wells and luminescence was measured on the topcount. The EC50 values were determined from a sigmoidal 4 parameter curve fit using XLfit in conjunction with Activity Base (IDBS; Guildford, Surrey, UK).

[2] = system: SN40R2 (MDM2 amplified, p53 mutated osteosarcoma); test: Protocol A: SN40R2 growth inhibition (SRB); conditions: 72 h
Experimental: Protocol A: SJSA-1 and SN40R2 Assays
as §1

[3] = biological target: MDM2-p53 interaction (in vitro translated MDM2, biotinylated IP3 peptide) (Homo sapiens, UniProt Q00987); test: MDM2-p53 interaction 96-well plate binding assay (ELISA); conditions: for inhibition at 0.1 µM: @ 0.10 μM
Experimental: The ELISA assay was performed in streptavidin coated plates which were preincubated with 200 μl per well of 1 μg ml^−1 biotinylated IP3 peptide. The plates were ready to use for MDM2 binding after washing the plate with PBS.
The unbound secondary antibody was removed by washing three times with TBS-Tween. The bound HRP activity was measured by enhanced chemiluminesence (ECL™, Amersham Biosciences) using the oxidation of the diacylhydrazide substrate, luminol, to generate a quantifiable light signal. The percentage of MDM2 inhibition at a given concentration is calculated as the [1−(RLU detected in the compound treated sample−RLU negative DMSO control)÷(RLU of DMSO positive and negative controls)]×100 or as the (RLU detected in the compound treated sample÷RLU of DMSO controls)×100. The IC50 was calculated using a plot of % MDM2 inhibition vs concentration and is the average of two or three independent experiments.

[4] = Homo sapiens, SJSA-1, 72 h, read-out: SJSA-1 IC50 (μM) (Protocol A), SJSA-1, Protocol A (SRB), 72 hrs
[5] = read-out: SJSA1 IC50 (μM) (Protocol B), SJSA-1, Protocol B (CellTiter-Glo), 72 hrs
[6] = read-out: SN40R2 IC50 (μM) (Protocol A)
[7] = Homo sapiens, SJSA-1, 72 h, read-out: SJSA1 IC50 (μM) (Protocol B), SJSA-1, Protocol B (CellTiter-Glo), 72 hrs
[8] = Homo sapiens, SJSA-1, 72 h, read-out: SJSA1 IC50 (Protocol B), SJSA-1 cells, CellTiter-Glo, 72 hrs
[9] = @ 0.0010 μM, read-out: MDM2 % @ concentration
[10] = Homo sapiens, SJSA-1, 72 h, read-out: SJSA-1 IC50 (Protocol A), SJSA-1 cells, SRB, 72 hrs
[11] = read-out: MDM2 % @ concentration

Sequence of MDM2-p53 interaction (in vitro translated MDM2, biotinylated IP3 peptide) (Q00987 whole entry): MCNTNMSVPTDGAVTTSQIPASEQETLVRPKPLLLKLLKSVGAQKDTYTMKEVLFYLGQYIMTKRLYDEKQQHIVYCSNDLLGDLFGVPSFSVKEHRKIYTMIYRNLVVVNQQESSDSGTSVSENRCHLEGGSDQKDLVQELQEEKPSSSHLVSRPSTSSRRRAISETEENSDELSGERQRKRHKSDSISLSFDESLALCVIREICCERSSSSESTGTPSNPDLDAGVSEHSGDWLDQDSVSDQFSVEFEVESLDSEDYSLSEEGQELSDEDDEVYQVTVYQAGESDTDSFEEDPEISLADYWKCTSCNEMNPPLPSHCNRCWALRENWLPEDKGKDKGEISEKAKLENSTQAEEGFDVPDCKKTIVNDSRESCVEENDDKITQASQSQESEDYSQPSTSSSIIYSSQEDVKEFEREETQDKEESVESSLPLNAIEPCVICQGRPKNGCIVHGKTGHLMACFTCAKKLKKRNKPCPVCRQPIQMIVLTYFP

CCC(O)(c1cc(F)c2c(c1)C(=O)N(Cc1ccc(C#N)nc1)[C@@]2(O[C@H]1CCOC1)c1ccc(Cl)cc1)c1cn(C)cn1 (single isomer, unassigned) [Example 431]
IC50 [1, 4]: 0.11 µM

CCC(O)(c1cc(F)c2c(c1)C(=O)N(Cc1ncc(Cl)cn1)[C@@]2(OCC1(C(N)=O)CC1)c1ccc(Cl)cc1)c1cn(C)cn1 (stereo partly drawn) [Example 486, 1-({[(1R)-1-(4-chlorophenyl)-2-[(5-chloropyrimidin-2-yl)methyl]-7-fluoro-5-[1-hydroxy-1-(1-methyl-1H-imidazol-4-yl)propyl]-3-oxo-2,3-dihydro-1H-isoindol-1-yl]oxy}methyl) cyclopropane-1-carboxamide]
IC50 [1, 4]: 0.075 µM

CCC(O)(c1cc(F)c2c(c1)C(=O)N(Cc1ccc(C#N)cn1)[C@@]2(O[C@H]1CCOC1)c1ccc(Cl)cc1)C1(F)CCOCC1 (single isomer, unassigned) [Example 446]
IC50 (SJSA-1; [5]): 0.023 µM
IC50 [2, 6]: 29 µM
MDM2 % @ concentration ([3]; @ 0.0010 μM): 76% @ 0.0010

CC(O)(CO)c1cc(F)c2c(c1)C(=O)N(Cc1ccc(Cl)cn1)[C@@]2(OCC1(CO)CC1)c1ccc(Cl)cc1 (stereo partly drawn) [Example 17, (3R)-3-(4-Chlorophenyl)-2-[(5-chloropyridin-2-yl)methyl]-6-(1,2-dihydroxypropan-2-yl)-4-fluoro-3-({1-[hydroxy(^2H2)methyl]cyclopropyl}(^2H2)methoxy)-2,3-dihydro-1H-isoindol-1-one]
IC50 ([1]; read-out: SJSA-1 IC50 (Protocol A), SJSA-1 cells, SRB, 72 hrs): 0.1 µM

CCC(O)(c1cc(F)c2c(c1)C(=O)N(Cc1ncc(C#N)cn1)[C@@]2(OCCO)c1ccc(Cl)cc1)[C@H]1CC[C@H](O)CC1 (stereo partly drawn) [Example 510, 2-{[(1R)-1-(4-chlorophenyl)-7-fluoro-5-{1-hydroxy-1-[trans-4-hydroxycyclohexyl]propyl}-1-(2-hydroxyethoxy)-3-oxo-2,3-dihydro-1H-isoindol-2-yl]methyl}pyrimidine-5-carbonitrile]
IC50 (SJSA-1; [7]): 0.073 µM
IC50 [1, 4]: 0.084 µM

CC(C)(O)c1cc(F)c2c(c1)C(=O)N(Cc1ccc(Cl)cn1)[C@@]2(OCC1(CNCCO)CC1)c1ccc(Cl)cc1 [Example 326, (3R)-3-(4-chlorophenyl)-2-[(5-chloropyridin-2-yl)methyl]-4-fluoro-3-[(1-{[(2-hydroxyethyl)amino]methyl}cyclopropyl)methoxy]-6-(2-hydroxypropan-2-yl)-2,3-dihydro-1H-isoindol-1-one]
IC50 (SJSA-1; [8]): 2 µM
inhibition at 0.03 µM ([3]; @ 0.030 μM, read-out: MDM2 % @ concentration): 50%

CCC(O)(c1cc(F)c2c(c1)C(=O)N(Cc1ccc(C#N)cn1)[C@@]2(OCCOC)c1ccc(Cl)cc1)c1cn(C)cn1 (single isomer, unassigned) [Example 430]
IC50 (SJSA-1; [7]): 0.18 µM
IC50 [1, 4]: 0.11 µM

CO[C@]1(c2ccc(Cl)cc2)c2ccc(C(C)(O)CN3CC(=O)NC3=O)cc2C(=O)N1Cc1ccc(Cl)cn1 (single isomer, unassigned) [Example 329]
inhibition at 30 µM ([2]; read-out: SN40R2 (Protocol A) % at concentration): 8%
MDM2 % @ concentration ([3]; @ 0.30 μM): 61% @ 0.30

CCC(O)(c1cc(F)c2c(c1)C(=O)N(Cc1ncc(Cl)cc1O)[C@@]2(OCCO)c1ccc(Cl)cc1)c1cn(C)cn1 (single isomer, unassigned) [Example 443]
IC50 (SJSA-1; [7]): 0.093 µM
IC50 [2, 6]: 38 µM

CCC(O)(c1cc(F)c2c(c1)C(=O)N(Cc1ncc(Cl)cn1)[C@@]2(OCCO)c1ccc(Cl)cc1)[C@H]1CC[C@H](O)CC1 (single isomer, unassigned) [Example 517]
IC50 [1, 4]: 0.019 µM

CCC(O)(c1cc(F)c2c(c1)C(=O)N(Cc1ccc(C#N)cn1)[C@@]2(O[C@H]1C[C@@H](O)C1)c1ccc(Cl)cc1)[C@H]1CC[C@H](O)CC1 (single isomer, unassigned) [Example 518]
IC50 (SJSA-1; [5]): 0.065 µM
inhibition at 0.001 µM [3, 9]: 79%
IC50 [1, 4]: 0.058 µM

C[C@@H](CO[C@]1(c2ccc(Cl)cc2)c2c(F)cc(C(C)(C)O)cc2C(=O)N1Cc1ccc(Cl)cn1)C(N)=O [Example 167, (2S)-3-{[(1R)-1-(4-Chlorophenyl)-2-[(5-chloropyridin-2-yl)methyl]-7-fluoro-5-(2-hydroxypropan-2-yl)-3-oxo-2,3-dihydro-1H-isoindol-1-yl]oxy}-2-methylpropanamide]
IC50 [1, 10]: 0.64 µM

CO[C@]1(c2ccc(Cl)cc2)c2ccc(C(C)(O)CN3CCOCC3=O)cc2C(=O)N1Cc1ccc(Cl)cn1 (single isomer, unassigned) [Example 328]
IC50 ([2]; read-out: SN40R2 IC50 (Protocol A)): 25 µM
inhibition at 0.1 µM [3, 11]: 42%

CCC(O)(c1cc(F)c2c(c1)C(=O)N(Cc1ccc(C#N)cn1)[C@@]2(OC[C@@H](C)O)c1ccc(Cl)cc1)C1(F)CCOCC1 (single isomer, unassigned) [Example 498]
SJSA1 (Protocol B) % at concentration (SJSA-1): 96% at 10
inhibition at 0.1 µM [3, 11]: 32%

CC[C@@](O)(c1cc(F)c2c(c1)C(=O)N(Cc1ncc(C#N)cn1)[C@@]2(O[C@H]1CCOC1)c1ccc(Cl)cc1)C1CCN(C)CC1 [Example 557, 2-{[(1R)-1-(4-chlorophenyl)-7-fluoro-5-[(1S)-1-hydroxy-1-(1-methylpiperidin-4-yl)propyl]-3-oxo-1-[(3S)-oxolan-3-yloxy]-2,3-dihydro-1H-isoindol-2-yl]methyl}pyrimidine-5-carbonitrile]
IC50 (SJSA-1; [7]): 0.037 µM
IC50 [1, 4]: 0.25 µM

CN1CCC(C(C)(O)c2cc(F)c3c(c2)C(=O)N(Cc2ncc(Cl)cn2)[C@@]3(OCC2(CO)CC2)c2ccc(Cl)cc2)CC1 (single isomer, unassigned) [Example 554]
IC50 (SJSA-1; [7]): 0.07 µM
IC50 [1, 4]: 0.21 µM

Cn1cc(C(C)(O)c2cc(F)c3c(c2)C(=O)N(Cc2ccc(Cl)c[n+]2[O-])[C@@]3(OCC2(CO)CC2)c2ccc(Cl)cc2)cn1 (single isomer, unassigned) [Example 407]
IC50 (SJSA-1; [8]): 0.58 µM
inhibition at 0.001 µM [3, 9]: 62%

[2H]C([2H])(O)C1(C([2H])([2H])O[C@]2(c3ccc(Cl)cc3)c3c(F)cc(C(C)(C)O)cc3C(=O)N2Cc2ncc(C#N)cn2)CC1 [Example 513, 2-{[(1R)-1-(4-chlorophenyl)-7-fluoro-1-({1-[hydroxydideuteromethyl]cyclo-propyl}dideuteromethoxy)-5-(2-hydroxypropan-2-yl)-3-oxo-2,3-dihydro-1H-isoindol-2-yl]methyl}pyrimidine-5-carbonitrile]
IC50 (SJSA-1; [7]): 0.38 µM
IC50 [3]: 3.1 nM
IC50 [1, 4]: 0.26 µM

CCC(O)(c1cc(F)c2c(c1)C(=O)N(Cc1ncc(C#N)cn1)[C@@]2(O[C@H]1CCOC1)c1ccc(Cl)cc1)[C@H]1CC[C@H](O)CC1 (stereo partly drawn) [Example 503, 2-{[(1R)-1-(4-chlorophenyl)-7-fluoro-5-{1-hydroxy-1-[trans-4-hydroxycyclohexyl]propyl}-3-oxo-1-[(3S)-oxolan-3-yloxy]-2,3-dihydro-1H-isoindol-2-yl]methyl}pyrimidine-5-carbonitrile]
IC50 (SJSA-1; [7]): 0.011 µM
inhibition at 0.001 µM [3, 9]: 87%

CCC(O)(c1cc(F)c2c(c1)C(=O)N(Cc1ncc(Cl)cn1)[C@@]2(O[C@H]1C[C@@H](O)C1)c1ccc(Cl)cc1)C1(F)CCN(C)CC1 (single isomer, unassigned) [Example 570]
IC50 (SJSA-1; [7]): 0.046 µM
IC50 [1, 4]: 0.034 µM

CCC(O)(c1cc(F)c2c(c1)C(=O)N(Cc1ncc(Cl)cn1)[C@@]2(OC[C@@H](C)O)c1ccc(Cl)cc1)C1(F)CCN(C)CC1 (single isomer, unassigned) [Example 572]
IC50 (SJSA-1; [7]): 0.022 µM
IC50 [2, 6]: 18 µM

CCC(O)(c1cc(F)c2c(c1)C(=O)N(Cc1ncc(Cl)cn1)[C@@]2(O[C@H]1CCOC1)c1ccc(Cl)cc1)c1cn(C)cn1 (single isomer, unassigned) [Example 475]
IC50 [1, 4]: 0.028 µM

CCC(O)(c1cc(F)c2c(c1)C(=O)N(Cc1ncc(Cl)cn1)[C@@]2(OCC1(CO)CC1)c1ccc(Cl)cc1)c1cn(C)cn1 (single isomer, unassigned) [Example 477]
IC50 [1, 4]: 0.013 µM

CCC(O)(c1cc(F)c2c(c1)C(=O)N(Cc1ncc(Cl)cn1)[C@@]2(OCC1(C#N)CC1)c1ccc(Cl)cc1)C1(F)CCN(C)CC1 (single isomer, unassigned) [Example 564]
IC50 (SJSA-1; [7]): 0.00038 µM
IC50 [2, 6]: 16 µM

CCC(O)(c1cc(F)c2c(c1)C(=O)N(Cc1ncc(C#N)cn1)[C@@]2(OCC1(C#N)CC1)c1ccc(Cl)cc1)c1cn(C)cn1 (single isomer, unassigned) [Example 462]
IC50 (SJSA-1; [7]): 0.047 µM
IC50 [1, 4]: 0.073 µM

CCC(O)(c1cc(F)c2c(c1)C(=O)N(Cc1ccc(C#N)cn1)[C@@]2(OCCO)c1ccc(Cl)cc1)C1(F)CCOCC1 (single isomer, unassigned) [Example 500]
SJSA1 (Protocol B) % at concentration (SJSA-1): 16% at 10
inhibition at 0.1 µM [3, 11]: 21%

CCC(O)(c1cc(F)c2c(c1)C(=O)N(Cc1ncc(Cl)cn1)[C@@]2(OC)c1ccc(Cl)cc1)C1(F)CCN(C)CC1 (single isomer, unassigned) [Example 563]
IC50 (SJSA-1; [7]): 0.027 µM
IC50 [2, 6]: 15 µM

CO[C@]1(c2ccc(Cl)cc2)c2c(F)cc(C(C)(C)O)cc2C(=O)N1Cc1ccc(Cl)cn1 [Example 2, (3R)-3-(4-Chlorophenyl)-2-[(5-chloropyridin-2-yl)methyl]-4-fluoro-6-(2-hydroxypropan-2-yl)-3-methoxy-2,3-dihydro-1H-isoindol-1-one]
IC50 (SJSA-1; [8]): 3.4 µM
IC50 [1, 10]: 1.7 µM
